The source of these data is ChEMBL document CHEMBL3864153, “Metabolism-based structure optimization: Discovery of a potent and orally available tyrosine kinase ALK inhibitor bearing the tetracyclic benzo[b]carbazolone core” (Bioorg Med Chem Lett, 2016).

Data set [1] addresses T1, ALK tyrosine kinase receptor (Homo sapiens, UniProt Q9UM73). In words: Inhibition of ALK in human NCI-H3122 cells assessed as decrease in ERK phosphorylation after 1 hr by Western blot method. It is filed as cell-based. Background: Immunoblotting shows a protein as a band on a membrane.
Target sequence in this assay (Q9UM73 19-1620 limits assumed): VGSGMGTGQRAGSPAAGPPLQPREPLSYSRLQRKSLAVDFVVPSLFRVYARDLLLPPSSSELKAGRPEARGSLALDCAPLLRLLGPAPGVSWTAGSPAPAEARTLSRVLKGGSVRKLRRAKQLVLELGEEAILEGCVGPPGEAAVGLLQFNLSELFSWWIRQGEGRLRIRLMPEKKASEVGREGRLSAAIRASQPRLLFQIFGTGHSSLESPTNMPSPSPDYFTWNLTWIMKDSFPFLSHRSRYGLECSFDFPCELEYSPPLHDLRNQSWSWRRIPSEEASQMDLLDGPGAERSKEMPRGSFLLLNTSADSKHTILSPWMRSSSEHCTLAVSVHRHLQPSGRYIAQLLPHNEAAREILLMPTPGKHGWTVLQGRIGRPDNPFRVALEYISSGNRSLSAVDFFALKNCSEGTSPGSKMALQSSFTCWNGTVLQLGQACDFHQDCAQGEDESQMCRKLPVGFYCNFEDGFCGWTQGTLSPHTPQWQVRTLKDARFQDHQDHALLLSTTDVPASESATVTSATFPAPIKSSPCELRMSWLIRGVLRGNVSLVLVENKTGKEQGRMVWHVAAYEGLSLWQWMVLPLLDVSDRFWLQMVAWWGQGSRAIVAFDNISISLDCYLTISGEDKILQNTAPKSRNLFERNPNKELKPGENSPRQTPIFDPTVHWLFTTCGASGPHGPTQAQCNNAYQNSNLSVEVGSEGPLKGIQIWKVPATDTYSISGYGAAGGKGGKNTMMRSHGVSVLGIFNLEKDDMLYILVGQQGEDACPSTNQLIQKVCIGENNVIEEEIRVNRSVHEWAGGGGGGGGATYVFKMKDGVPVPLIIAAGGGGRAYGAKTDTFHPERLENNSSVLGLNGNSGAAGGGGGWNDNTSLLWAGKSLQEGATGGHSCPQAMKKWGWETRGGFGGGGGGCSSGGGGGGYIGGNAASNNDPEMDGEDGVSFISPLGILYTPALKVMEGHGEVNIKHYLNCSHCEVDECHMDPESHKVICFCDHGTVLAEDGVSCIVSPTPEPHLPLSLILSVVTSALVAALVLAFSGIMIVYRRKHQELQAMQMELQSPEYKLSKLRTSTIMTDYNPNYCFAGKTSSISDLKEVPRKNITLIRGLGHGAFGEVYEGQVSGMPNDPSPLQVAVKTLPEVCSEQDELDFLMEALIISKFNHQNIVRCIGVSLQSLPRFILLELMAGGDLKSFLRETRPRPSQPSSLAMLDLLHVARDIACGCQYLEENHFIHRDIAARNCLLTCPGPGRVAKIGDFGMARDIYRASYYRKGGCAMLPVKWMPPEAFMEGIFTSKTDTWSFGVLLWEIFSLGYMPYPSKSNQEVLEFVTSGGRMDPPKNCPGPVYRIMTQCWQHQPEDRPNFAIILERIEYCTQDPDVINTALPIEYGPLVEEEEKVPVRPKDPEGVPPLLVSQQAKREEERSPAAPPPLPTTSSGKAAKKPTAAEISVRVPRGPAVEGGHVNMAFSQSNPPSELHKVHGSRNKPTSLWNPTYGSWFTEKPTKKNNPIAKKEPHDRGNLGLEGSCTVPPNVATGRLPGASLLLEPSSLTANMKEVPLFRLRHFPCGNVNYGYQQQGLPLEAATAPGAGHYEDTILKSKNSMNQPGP
In data set [2] the target is T1, ALK tyrosine kinase receptor. In words: Inhibition of ALK in human NCI-H3122 cells assessed as decrease in STAT3 phosphorylation after 1 hr by Western blot method. It is filed as cell-based.
Target sequence in this assay (Q9UM73 19-1620 limits assumed): as above
Data set [3] shares this target. In words: Inhibition of ALK in human NCI-H3122 cells assessed as decrease in Akt phosphorylation after 1 hr by Western blot method. The class given is cell-based.
Target sequence in this assay (Q9UM73 19-1620 limits assumed): as above
Data set [4] has the same target. Kind of data set: Inhibition of ALK phosphorylation in human NCI-H3122 cells after 1 hr by Western blot method. The class given is cell-based.
Target sequence in this assay (Q9UM73 19-1620 limits assumed): as above
For the next data set, the system named is KARPAS-299. In words: Antitumor activity against human KARPAS299 cells xenografted in nude mouse assessed as tumor regression at 10 to 50 mg/kg, po qd administered for 14 days measured post last dose. The class given is functional, organism-based.
In data set [5] the target is Voltage-gated inwardly rectifying potassium channel KCNH2 (Homo sapiens, UniProt Q12809). Kind of data set: Inhibition of human ERG.
Voltage-gated inwardly rectifying potassium channel KCNH2, sequence (Q12809 whole entry): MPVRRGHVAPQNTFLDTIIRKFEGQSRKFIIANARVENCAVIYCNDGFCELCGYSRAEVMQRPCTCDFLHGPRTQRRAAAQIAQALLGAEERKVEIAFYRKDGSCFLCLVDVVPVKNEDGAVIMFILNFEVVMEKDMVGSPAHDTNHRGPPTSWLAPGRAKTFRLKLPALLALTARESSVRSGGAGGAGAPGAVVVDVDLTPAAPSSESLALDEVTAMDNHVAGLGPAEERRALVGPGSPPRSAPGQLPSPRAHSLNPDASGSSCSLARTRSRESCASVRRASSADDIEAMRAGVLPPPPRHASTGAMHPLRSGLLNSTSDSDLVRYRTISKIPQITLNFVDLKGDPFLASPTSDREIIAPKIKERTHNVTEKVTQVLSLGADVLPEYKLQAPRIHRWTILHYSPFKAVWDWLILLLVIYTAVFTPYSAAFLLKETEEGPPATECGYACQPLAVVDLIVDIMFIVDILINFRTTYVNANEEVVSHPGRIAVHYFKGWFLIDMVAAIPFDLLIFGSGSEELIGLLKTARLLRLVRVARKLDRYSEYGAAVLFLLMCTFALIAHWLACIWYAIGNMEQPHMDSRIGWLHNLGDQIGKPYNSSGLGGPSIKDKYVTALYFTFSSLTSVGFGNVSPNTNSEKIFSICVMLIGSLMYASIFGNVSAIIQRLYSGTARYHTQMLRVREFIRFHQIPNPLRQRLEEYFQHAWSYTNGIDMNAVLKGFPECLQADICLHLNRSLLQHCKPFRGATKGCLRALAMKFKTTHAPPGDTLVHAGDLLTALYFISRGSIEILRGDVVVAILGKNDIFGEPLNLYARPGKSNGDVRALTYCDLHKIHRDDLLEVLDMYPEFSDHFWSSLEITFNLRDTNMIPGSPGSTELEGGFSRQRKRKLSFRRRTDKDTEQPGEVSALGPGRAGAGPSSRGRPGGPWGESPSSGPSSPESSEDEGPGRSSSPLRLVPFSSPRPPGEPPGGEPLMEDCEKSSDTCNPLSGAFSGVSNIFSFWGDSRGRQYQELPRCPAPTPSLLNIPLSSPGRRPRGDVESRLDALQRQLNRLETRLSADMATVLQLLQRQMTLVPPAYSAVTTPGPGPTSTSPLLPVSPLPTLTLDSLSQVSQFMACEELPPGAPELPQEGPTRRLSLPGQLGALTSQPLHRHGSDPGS
A short description of data set [6]: Antiproliferative activity against ALK constitutively activated human NCI-H3122 cells after 72 hrs by SRB or CCK8 assay. The note with it: NCI-H3122, 72 h. A general note: Formazan colour is commonly taken as a measure of viable cells.
Data set [7] concerns the target Epidermal growth factor receptor (Homo sapiens, UniProt P00533). In words: Inhibition of recombinant EGFR (unknown origin) using poly (Glu,Tyr)4:1 as substrate after 60 mins by ELISA.
The target of data set [8] is Vascular endothelial growth factor receptor 2 (Homo sapiens, UniProt P35968). Kind of data set: Inhibition of recombinant KDR (unknown origin) using poly (Glu,Tyr)4:1 as substrate after 60 mins by ELISA. On the technique in general: An ELISA detects its analyte on a solid surface through an enzyme-linked reagent.
Data set [9] in a line: Antiproliferative activity against ALK constitutively activated human NCI-H3122 cells at 50 nM after 72 hrs by SRB or CCK8 assay relative to control. It is filed as functional. As to conditions: NCI-H3122, 72 h.
Data set [10] is described as follows: Tmax in Sprague-Dawley rat at 10 mg/kg, po. The note with it: in vivo. The class given is ADME, organism-based.
Data set [11] concerns the target Receptor tyrosine-protein kinase erbB-2 (Homo sapiens, UniProt P04626). Kind of data set: Inhibition of recombinant ErbB2 (unknown origin) using poly (Glu,Tyr)4:1 as substrate after 60 mins by ELISA.
Data set [12] concerns the target Proto-oncogene tyrosine-protein kinase Src (Homo sapiens, UniProt P12931). Kind of data set: Inhibition of recombinant c-Src (unknown origin) using poly (Glu,Tyr)4:1 as substrate after 60 mins by ELISA.
The nature of data set [13]: Half life in Sprague-Dawley rat at 5 mg/kg, iv. It is filed as ADME, organism-based. The note with it: in vivo.
For data set [14], the target named is Tyrosine-protein kinase ABL1 (Homo sapiens, UniProt P00519). In words: Inhibition of recombinant ABL (unknown origin) using poly (Glu,Tyr)4:1 as substrate after 60 mins by ELISA.
For data set [15], the target named is T1, ALK tyrosine kinase receptor. In words: Inhibition of recombinant wild type ALK (unknown origin) using poly (Glu,Tyr)4:1 as substrate after 60 mins by ELISA.
Target sequence in this assay (Q9UM73 whole entry): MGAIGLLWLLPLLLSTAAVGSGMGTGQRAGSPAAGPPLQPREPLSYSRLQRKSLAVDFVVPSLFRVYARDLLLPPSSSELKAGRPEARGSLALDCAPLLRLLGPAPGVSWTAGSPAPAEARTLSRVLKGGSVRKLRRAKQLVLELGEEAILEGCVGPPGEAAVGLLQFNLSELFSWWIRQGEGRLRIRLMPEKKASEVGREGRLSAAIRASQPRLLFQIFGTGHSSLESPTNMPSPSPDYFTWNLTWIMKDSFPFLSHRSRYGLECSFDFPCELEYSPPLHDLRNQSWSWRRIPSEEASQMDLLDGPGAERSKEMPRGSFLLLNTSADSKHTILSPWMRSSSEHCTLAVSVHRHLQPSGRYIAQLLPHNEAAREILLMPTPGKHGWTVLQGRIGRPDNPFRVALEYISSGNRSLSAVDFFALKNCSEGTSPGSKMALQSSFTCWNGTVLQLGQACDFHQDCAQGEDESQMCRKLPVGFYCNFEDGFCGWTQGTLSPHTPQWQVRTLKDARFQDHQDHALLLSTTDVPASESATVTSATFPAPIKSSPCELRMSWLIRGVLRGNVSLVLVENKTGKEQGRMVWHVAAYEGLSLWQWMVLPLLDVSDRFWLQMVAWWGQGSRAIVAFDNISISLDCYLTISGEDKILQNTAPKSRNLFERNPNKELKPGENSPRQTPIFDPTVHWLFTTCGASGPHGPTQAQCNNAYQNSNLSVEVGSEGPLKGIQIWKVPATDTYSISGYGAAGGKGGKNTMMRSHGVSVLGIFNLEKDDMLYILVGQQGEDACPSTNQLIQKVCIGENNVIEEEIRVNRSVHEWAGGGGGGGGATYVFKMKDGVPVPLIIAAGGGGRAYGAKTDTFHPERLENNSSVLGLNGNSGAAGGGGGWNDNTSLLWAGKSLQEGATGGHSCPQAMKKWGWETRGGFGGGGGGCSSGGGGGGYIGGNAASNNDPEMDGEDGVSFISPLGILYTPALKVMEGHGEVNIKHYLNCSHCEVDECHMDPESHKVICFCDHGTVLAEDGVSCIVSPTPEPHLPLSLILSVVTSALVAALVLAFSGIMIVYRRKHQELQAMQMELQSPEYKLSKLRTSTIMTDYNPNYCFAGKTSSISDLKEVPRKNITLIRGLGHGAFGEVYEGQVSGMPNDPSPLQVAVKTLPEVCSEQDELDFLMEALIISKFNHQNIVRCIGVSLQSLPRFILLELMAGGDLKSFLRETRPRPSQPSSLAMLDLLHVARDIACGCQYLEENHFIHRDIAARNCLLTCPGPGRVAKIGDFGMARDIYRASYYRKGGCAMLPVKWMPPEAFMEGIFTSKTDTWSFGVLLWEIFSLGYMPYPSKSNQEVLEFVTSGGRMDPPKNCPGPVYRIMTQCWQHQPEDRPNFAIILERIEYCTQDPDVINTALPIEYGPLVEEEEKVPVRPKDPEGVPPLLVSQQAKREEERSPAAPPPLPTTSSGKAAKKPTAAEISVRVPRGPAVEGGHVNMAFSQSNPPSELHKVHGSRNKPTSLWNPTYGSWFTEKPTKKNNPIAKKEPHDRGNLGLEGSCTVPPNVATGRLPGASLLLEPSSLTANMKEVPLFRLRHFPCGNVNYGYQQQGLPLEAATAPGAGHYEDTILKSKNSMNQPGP
The nature of data set [16]: Antiproliferative activity against ALK constitutively activated human KARPAS299 cells after 72 hrs by SRB or CCK8 assay. The note with it: KARPAS-299, 72 h.
A short description of data set [17]: Oral bioavailability in Sprague-Dawley rat at 10 mg/kg. It is filed as ADME, organism-based. As to conditions: in vivo.
Data set [18] has as its target Platelet-derived growth factor receptor alpha (Homo sapiens, UniProt P16234). In words: Inhibition of recombinant PDGFR-alpha (unknown origin) using poly (Glu,Tyr)4:1 as substrate after 60 mins by ELISA.
For data set [19], the target named is Receptor tyrosine-protein kinase erbB-4 (Homo sapiens, UniProt Q15303). Kind of data set: Inhibition of recombinant ErbB4 (unknown origin) using poly (Glu,Tyr)4:1 as substrate after 60 mins by ELISA.
The target of data set [20] is ALK tyrosine kinase receptor (Homo sapiens, UniProt Q9UM73, L1196M). In words: Inhibition of recombinant ALK L1196M mutant (unknown origin) using poly (Glu,Tyr)4:1 as substrate after 60 mins by ELISA.
ALK tyrosine kinase receptor (Homo sapiens, UniProt Q9UM73, L1196M), sequence (Q9UM73 19-1620 L1196M limits assumed): as the sequence (Q9UM73 19-1620 limits assumed) above, with L1178M counted along it
A further data set deals with Ephrin type-A receptor 2 (Homo sapiens, UniProt P29317). In words: Inhibition of recombinant EPHA2 (unknown origin) using poly (Glu,Tyr)4:1 as substrate after 60 mins by ELISA.
Data set [21] concerns the target Platelet-derived growth factor receptor beta (Homo sapiens, UniProt P09619). In words: Inhibition of recombinant PDGFR-beta (unknown origin) using poly (Glu,Tyr)4:1 as substrate after 60 mins by ELISA.
A short description of data set [22]: Volume of distribution in Sprague-Dawley rat at 5 mg/kg, iv. The note with it: in vivo. It is filed as ADME, organism-based.
The target of data set [23] is Insulin-like growth factor 1 receptor (Homo sapiens, UniProt P08069). In words: Inhibition of recombinant IGF1R (unknown origin) using poly (Glu,Tyr)4:1 as substrate after 60 mins by ELISA.
Data set [24] is described as follows: Antiproliferative activity against ALK constitutively activated human SU-DHL1 cells after 72 hrs by SRB or CCK8 assay. As to conditions: SU-DHL-1, 72 h.
In data set [25] the target is Mast/stem cell growth factor receptor Kit (Homo sapiens, UniProt P10721). Kind of data set: Inhibition of recombinant c-Kit (unknown origin) using poly (Glu,Tyr)4:1 as substrate after 60 mins by ELISA.
Data set [26] in a line: Cmax in Sprague-Dawley rat at 10 mg/kg, po. The class given is ADME, organism-based. On the set-up: dose 10 mg/kg, route oral. As to conditions: in vivo.
Data set [27] in a line: AUC (0 to infinity) in Sprague-Dawley rat at 5 mg/kg, iv. It is filed as ADME, organism-based. On the set-up: dose 5 mg/kg, time infinity, route intravenous. The note with it: in vivo.
Data set [28] can be described thus: Clearance in Sprague-Dawley rat at 5 mg/kg, iv. It is filed as ADME, organism-based. The note with it: in vivo.
Data set [29] in a line: AUC (0 to infinity) in Sprague-Dawley rat at 10 mg/kg, po. Also on record: dose 10 mg/kg, time infinity, route oral. The class given is ADME, organism-based. The note with it: in vivo.
The nature of data set [30]: Antiproliferative activity against ALK constitutively activated human NCI-H3122 cells at 10 nM after 72 hrs by SRB or CCK8 assay relative to control. The class given is functional. The note with it: NCI-H3122, 72 h.
A short description of data set [31]: Antitumor activity against human KARPAS299 cells xenografted in nude mouse assessed as tumor growth inhibition at 50 mg/kg, po qd administered for 14 days measured twice per week during compound dosing relative to vehicle-treated control. The note with it: KARPAS-299, po, 336 h, read-out: TGI. It is filed as functional.
Data set [32] in a line: Antitumor activity against human KARPAS299 cells xenografted in nude mouse assessed as tumor growth inhibition at 10 mg/kg, po qd administered for 14 days measured twice per week during compound dosing relative to vehicle-treated control. As to conditions: KARPAS-299, po, 336 h, read-out: TGI. It is filed as functional.
For the next data set, the system named is Mus musculus. In words: Toxicity in nude mouse xenografted with human KARPAS299 cells assessed as body weight loss at 10 to 50 mg/kg, po qd administered for 14 days. It is filed as organism-based, KARPAS-299. The note with it: in vivo, 336 h.
The nature of data set [33]: Antitumor activity against human KARPAS299 cells xenografted in nude mouse assessed as tumor growth inhibition at 20 mg/kg, po qd administered for 14 days measured twice per week during compound dosing relative to vehicle-treated control. The class given is functional. The note with it: KARPAS-299, po, 336 h, read-out: TGI.
Data set [34] in a line: Drug level in rat liver microsomes treated with 9-Ethyl-8-(4-((4-hydroxytetrahydro-2H-pyran-4-yl)methyl)piperazin-1-yl)-6,6-dimethyl-11-oxo-6,11-dihydro-5H-benzo[b]carbazole-3-carbonitrile after 3 hrs. The class given is ADME.

Calls of active or inactive are those of the source. No cut-off for these calls is given here. A value given as a limit tells only on which side of the number the result lay.

One may read the inhibition as the change of the read-out against control, counted positive when it falls. The IC50 is the concentration needed to halve the response being measured. Usually Tmax stands for the time from dosing to the highest level. In general, half-life refers to how long it takes for the measured level to halve. A low value points to rapid decline. As a reminder, the Vd is the apparent volume that relates the amount in the body to the concentration in plasma or blood. A higher Vd goes with wide distribution into tissue. Broadly, the Cmax is the highest concentration seen after dosing. As usually defined, the AUC(0-inf) is the area under the concentration-time curve extrapolated to infinity. The low end stands for less exposure, the high end for more exposure. What is called clearance is the volume of plasma or blood freed of the substance per unit of time. Read a high clearance as a high capacity for elimination.

Proto-oncogene tyrosine-protein kinase Src, sequence (P12931 2-536 limits assumed): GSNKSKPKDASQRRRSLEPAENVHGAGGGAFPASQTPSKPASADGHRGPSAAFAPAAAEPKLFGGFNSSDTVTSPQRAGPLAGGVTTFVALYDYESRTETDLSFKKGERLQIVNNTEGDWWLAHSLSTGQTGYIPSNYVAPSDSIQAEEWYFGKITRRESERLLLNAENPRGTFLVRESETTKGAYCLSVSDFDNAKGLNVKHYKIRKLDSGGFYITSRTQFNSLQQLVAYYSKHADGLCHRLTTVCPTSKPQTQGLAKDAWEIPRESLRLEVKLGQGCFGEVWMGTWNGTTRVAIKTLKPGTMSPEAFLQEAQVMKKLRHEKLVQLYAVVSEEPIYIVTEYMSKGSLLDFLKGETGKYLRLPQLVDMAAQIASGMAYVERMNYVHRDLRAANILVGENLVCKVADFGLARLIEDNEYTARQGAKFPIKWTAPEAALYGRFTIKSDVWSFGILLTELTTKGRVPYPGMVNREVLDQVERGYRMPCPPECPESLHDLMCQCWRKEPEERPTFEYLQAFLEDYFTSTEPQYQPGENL

Consider `CCc1cc2c(cc1N1CCN(CC3(O)CCOCC3)CC1)C(C)(C)c1[nH]c3cc(C#N)ccc3c1C2=O` [listing 1 of 2 here], for which the inhibition entry in [1], in data set [2], in data set [3] and in data set [4] was “Dose-dependent effect” in each case. Moreover, the outcome in the data set on KARPAS-299 was Active.
As for `CC1(C)c2cc(C3CCN(CC4(O)CCOCC4)CC3)ccc2C(=O)c2c1[nH]c1cc(C#N)ccc21`, the IC50 in data set [5] is over 12300 nM.
On to `CCc1cc2c(cc1N1CCN(CC3(O)CCOCC3)CC1)C(C)(C)c1[nH]c3cc(C#N)ccc3c1C2=O` [listing 2 of 2 here], for which the IC50 in [6] is 24.4 nM; in [7] it was over 1000 nM; in data set [8] it was over 1000 nM; in data set [11], over 1000 nM; in data set [12], over 1000 nM; in data set [14], over 1000 nM. In addition, the IC50 was 1.5 nM in [15]; 22.6 nM in [16]; over 1000 nM in data set [18]; over 1000 nM in data set [19]; 4.2 nM in data set [20]; over 1000 nM at Ephrin type-A receptor 2. The IC50 is over 1000 nM in data set [21]; 30000 to 33400 nM in data set [5]; over 1000 nM in data set [23]; 16.7 nM in [24]; over 1000 nM in data set [25]. In addition, 0.05 µM produced 80% inhibition in data set [9]. Moreover, in [10], the Tmax was 4 h. Also, in [13], the half-life was 5.5 h. In addition, the bioavailability in data set [17] is 105%. The compound also had a Vd in data set [22] of 5 L/kg. The compound further registered a Cmax in data set [26] of 867 ng/mL. Moreover, the AUC(0-inf) in [27] was determined as 6640 ng·h/mL; in data set [29], 11700 ng·h/mL. The clearance in [28] was 12.2 mL/min/kg.
With `CCc1cc2c(cc1N1CCN(CC3(O)CC(C)OC(C)C3)CC1)C(C)(C)c1[nH]c3cc(C#N)ccc3c1C2=O` (stereo not given), the IC50 in [15] worked out at 2.4 nM. The compound also returned an inhibition at 0.01 µM in data set [30] of 40%.
As to `CCc1cc2c(cc1N1CCN(CC3(O)CCOCC3)CC1)C(C)(C)c1[nH]c3cc(C#N)ccc3c1C2=O.Cl`, the inhibition in vivo at 50 mg/kg in data set [31] is 110%. For the same compound, in data set [32], the inhibition in vivo at 10 mg/kg was 110%. Besides, the Activity result in the data set with Mus musculus is “Non-Toxic”. In data set [33], the inhibition in vivo at 20 mg/kg is over 100%.
In data set [9], `CCc1cc2c(cc1N1CCN(CC(O)(CCC(=O)O)CC(=O)O)CC1)C(C)(C)c1[nH]c3cc(C#N)ccc3c1C2=O` (stereo not given) displayed an inhibition at 0.05 µM of 3%. The IC50 in [15] worked out at 17.1 nM. Also, the Drug metabolism entry in data set [34] was “Metabolite_Detected”.
`CC1(C)c2cc(C3CCN(CC4CCOCC4)CC3)ccc2C(=O)c2c1[nH]c1cc(C#N)ccc21` returned an IC50 in data set [5] of 2650 nM.
Regarding `CCc1cc2c(cc1N1CCN(CC3(O)CCCCC3)CC1)C(C)(C)c1[nH]c3cc(C#N)ccc3c1C2=O`, testing at 0.05 µM in data set [9] gave an inhibition of 40%. Also, in data set [15], the IC50 was determined as 7 nM.
For the compound `C[C@@H](Oc1cc(-c2cnn(C3CCNCC3)c2)cnc1N)c1c(Cl)ccc(F)c1Cl` [CRIZOTINIB], the IC50 worked out at 101 nM in data set [6], 105 nM in data set [16] and 92.3 nM in data set [24]. Further, the inhibition in vivo at 50 mg/kg in data set [31] is 109%.
For `CCc1cc2c(cc1N1CCN(CC3(O)CCNCC3)CC1)C(C)(C)c1[nH]c3cc(C#N)ccc3c1C2=O`, testing at 0.05 µM in [9] gave an inhibition of 5%. Further, the IC50 in [15] is 1.4 nM.
